IC50 data for eight compounds are collected here from patent US8541587B2, “Lysophosphatidic acid receptor antagonists” (Amira Pharmaceuticals, Inc., priority 2011, dated 2013).

The structures appear in SMILES notation.

The target of one test is T1, human LPA1 receptor (Homo sapiens, UniProt Q92633).
T1 construct: the full-length cDNA for human LPA1 was obtained by PCR of the reverse transcription reaction; expressed in transfected cells
Description: LPA1 binding (GTPγS binding assay, membranes of CHO cells expressing human LPA1). It is filed as biochemical. The note with it: 900 nM LPA, [35S]-GTPγS. The procedure: A 1.1 kb cDNA encoding the human LPA1 receptor was cloned from human lung. Human lung RNA (Clontech Laboratories, Inc. USA) was reverse transcribed using the RETROscript kit (Ambion, Inc.) and the full-length cDNA for human LPA1 was obtained by PCR of the reverse transcription reaction. The nucleotide sequence of the cloned human LPA1 was determined by sequencing and confirmed to be identical to the published human LPA1 sequence (An et al. Biochem. Biophys. Res. Commun. 231:619 (1997). The cDNA was cloned into the pCDNA5/FRT expression plasmid and transfected in CHO cells using lipofectamine 2000 (Invitrogen Corp., USA). Clones stably expressing human LPA1 were selected using hygromycin and identified as cells that show Ca-influx in response to LPA.
The ability of a compound to inhibit binding of GTP to LPA1 is assessed via a membrane GTPγS assay. CHO cells stably expressing the recombinant human LPA1 receptor are resuspended in 10 mM Hepes, 7.4 containing 1 mM DTT, lysed and centrifuged at 75,000×g to pellet the membranes. The membranes are resuspended in 10 mM Hepes, 7.4 containing 1 mM DTT and 10% glycerol. Membranes (˜25 μg per well) are incubated in 96-well plates with 0.1 nM [^35S]-GTPγS, 900 nM LPA, 5 μM GDP, and test compound in Assay Buffer (50 mM Hepes, pH 7.4, 100 mM NaCl, 10 mM MgCl2, 50 μg/ml saponin and 0.2% fatty-acid free human serum albumin) for 30 minutes at 30° C. The reactions are terminated by rapid filtration through Whatman GF/B glass fibre filter plates. The filter plates are washed 3 times with 1 ml cold Wash Buffer (50 mM Hepes, 7.5, 100 mM NaCl and 10 mM MgCl2) and dried. Scintillant is then added to the plates and the radioactivity retained on the filters is determined on a Packard TopCount (Perkin Elmer). Specific binding is determined as total radioactive binding minus non-specific binding in the absence of the ligand (900 nM LPA). IC50s were determined using Graphpad prism analysis of drug titration curves.
For orientation: Binding of GTPγS marks nucleotide exchange on a G protein.

For another test, the target named is T2, human LPA2 receptor (Homo sapiens, UniProt Q9HBW0).
T2 construct: The full-length cDNA fragment for human LPA2 was obtained by PCR from the vector; expressed in transfected cells; host or cells: B103 cells (pCDNA3.1, transient, lipofectamine 2000)
T2 sequence (Q9HBW0 whole entry, the tested form may be a part): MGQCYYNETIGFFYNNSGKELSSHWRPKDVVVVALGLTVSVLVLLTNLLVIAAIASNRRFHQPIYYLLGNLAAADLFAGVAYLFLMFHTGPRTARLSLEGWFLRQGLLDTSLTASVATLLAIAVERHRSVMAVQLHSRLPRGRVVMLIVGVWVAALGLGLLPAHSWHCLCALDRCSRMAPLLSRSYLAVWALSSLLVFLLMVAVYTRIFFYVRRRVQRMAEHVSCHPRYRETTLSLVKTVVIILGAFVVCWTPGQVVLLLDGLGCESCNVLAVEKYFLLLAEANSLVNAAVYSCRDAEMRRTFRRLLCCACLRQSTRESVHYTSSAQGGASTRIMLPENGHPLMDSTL
Kind of test: LPA2 calcium flux assay (B103 cells transiently expressing human LPA2). It is filed as cell-based. Particulars: read-out: LPA2 Binding IC50. The procedure: A vector containing the human LPA2 receptor cDNA was obtained from the Missouri S&T cDNA Resource Center (www.cdna.org). The full-length cDNA fragment for human LPA2 was obtained by PCR from the vector. The nucleotide sequence of the cloned human LPA2 was determined by sequencing and confirmed to be identical to the published human LPA2 sequence (NCBI accession number NM_004720). The cDNA was cloned into the pCDNA3.1 expression plasmid and transfected into B103 cells (Invitrogen Corp., USA) by seeding cells in a 96-well poly-D-lysine coated plate at 30,000-35,000 cells per well together with 0.2 μl lipofectamine 2000 and 0.2 μg of the LPA2 expression vector. Cells were cultured overnight in complete media before being assayed for LPA-induced Ca-influx.
(§1) Following an overnight culture with lipofectamine 2000 and the LPA2 expression vector, the B103 cells are washed once with PBS then serum starved for 4 hours. A calcium indicator dye (Calcium 4, Molecular Devices) in assay buffer (HBSS with Ca^2+ and Mg^2+ and containing 20 mM Hepes and 0.3% fatty-acid free human serum albumin) is added to each well and incubation continued for 1 hour at 37° C. 10 μl of test compounds in 2.5% DMSO are added to the cells and incubation continued at room temperature for 30 minutes. Cells are the stimulated by the addition of 10 nM LPA and intracellular Ca^2+ measured using the Flexstation 3 (Molecular Devices). IC50s are determined using Graphpad prism analysis of drug titration curves.
(Calcium assays in cells follow changes in intracellular calcium, usually with a dye or a luminescent sensor.)

Another test has as its target T3, human LPA3 receptor (Homo sapiens, UniProt Q9UBY5).
T3 construct: The full-length cDNA fragment for human LPA3 was obtained by PCR from the vector; expressed in transfected cells
T3 sequence (Q9UBY5 1-353): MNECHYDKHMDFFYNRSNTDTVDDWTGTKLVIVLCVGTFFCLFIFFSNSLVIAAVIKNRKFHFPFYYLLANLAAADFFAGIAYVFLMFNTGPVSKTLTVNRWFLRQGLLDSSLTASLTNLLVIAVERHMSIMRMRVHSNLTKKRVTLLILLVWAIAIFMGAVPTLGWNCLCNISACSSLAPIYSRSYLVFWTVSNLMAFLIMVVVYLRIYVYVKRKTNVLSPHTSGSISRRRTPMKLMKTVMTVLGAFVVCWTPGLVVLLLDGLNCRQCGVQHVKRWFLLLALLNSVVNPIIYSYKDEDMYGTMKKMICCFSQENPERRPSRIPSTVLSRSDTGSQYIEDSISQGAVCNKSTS
Kind of test: LPA3 calcium flux assay (CHO cells stably expressing human LPA3). The test is classed as cell-based. The note with it: read-out: LPA3 Binding IC50. The procedure:
A vector containing the human LPA3 receptor cDNA was obtained from the Missouri S&T cDNA Resource Center (www.cdna.org). The full-length cDNA fragment for human LPA3 was obtained by PCR from the vector. The nucleotide sequence of the cloned human LPA3 was determined by sequencing and confirmed to be identical to the published human LPA3 sequence (NCBI accession number NM_012152). The cDNA was cloned into the pCDNA5/FRT expression plasmid and transfected in CHO cells using lipofectamine 2000 (Invitrogen Corp., USA). Clones stably expressing human LPA3 were selected using hygromycin and identified as cells that show Ca-influx in response to LPA.
as §1, with “Human LPA1 or LPA3 expressing CHO cells are seeded at 20,000-45,000 cells per well in a 96-well poly-D-lysine coated plate one or two days before” for “Following an overnight culture with lipofectamine 2000 and”, “assay. Prior to” for “LPA2 expression vector,”, “assay, the” for “B103”, “PBS and” for “PBS”, “cultured in serum-free media overnight. On the day of the assay, a” for “serum starved for 4 hours. A”

For test [1], the system named is A2058 human melanoma cells. Kind of test: LPA1 chemotaxis assay. The note with it: 100 nM LPA, read-out: IC50, inhibition of LPA-driven chemotaxis. It is filed as cell-based. Here is the method:
Chemotaxis of the A2058 human melanoma cells was measured using the Neuroprobe ChemoTx® System plates (8 μm pore size, 5.7 mm diameter sites). The filter sites were coated with 0.001% fibronectin (Sigma) in 20 mM Hepes, pH 7.4 and allowed to dry. A2058 cells were serum-starved for 24 hours, then harvested with Cell Stripper and resuspended in DMEM containing 0.1% fatty-acid-free bovine serum albumin (BSA) to a concentration of 1×10^6/ml. Cells were mixed with an equal volume of test compound (2×) in DMEM containing 0.1% fatty-acid-free BSA and incubated at 37° C. for 15 minutes. LPA (100 nM in DMEM containing 0.1% fatty-acid-free BSA) or vehicle was added to each well of the lower chamber and 50 μl of the cell suspension/test compound mix was applied to the upper portion of the ChemoTx plate. Plates were incubated at 37° C. for three hours and then the cells removed from the upper portion by rinsing with PBS and scraping. The filter was dried then stained with HEMA 3 Staining System (Fisher Scientific). The absorbance of the filter was read at 590 nm and IC50s were determined using Symyx Assay Explorer.

T1 sequence (Q92633 whole entry): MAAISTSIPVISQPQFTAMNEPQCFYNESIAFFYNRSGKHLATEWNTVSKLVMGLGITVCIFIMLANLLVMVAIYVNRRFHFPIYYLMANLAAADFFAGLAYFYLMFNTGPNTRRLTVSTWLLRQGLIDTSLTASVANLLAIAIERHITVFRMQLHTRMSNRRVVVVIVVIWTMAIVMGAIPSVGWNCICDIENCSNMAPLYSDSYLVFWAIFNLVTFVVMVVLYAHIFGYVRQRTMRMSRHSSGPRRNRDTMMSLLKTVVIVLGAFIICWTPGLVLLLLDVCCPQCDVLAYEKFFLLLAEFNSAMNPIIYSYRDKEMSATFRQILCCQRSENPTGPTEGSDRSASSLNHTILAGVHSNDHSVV

Regarding `Cc1ccccc1-c1cccc(Nc2c(C)noc2-c2ccc(-c3ccc(C4(C(=O)O)CC4)cc3)cc2)n1` [Compound 1, 1-(4′-{3-Methyl-4-[6-(2-methyl-phenyl)-pyridin-2-ylamino]-isoxazol-5-yl}-biphenyl-4-yl)-cyclopropanecarboxylic acid], the IC50 (as a rule, the concentration that gives 50% inhibition) at human LPA1 receptor is less than 300 nM; at human LPA2 receptor it was less than 300 nM; on human LPA3 receptor, less than 300 nM; in test [1], less than 500 nM.
For the compound `Cc1cccc(-c2cccc(Nc3c(C)noc3-c3ccc(-c4ccc(C5(C(=O)O)CC5)cc4)cc3)n2)c1` [Compound 2, 1-(4′-{3-Methyl-4-[6-(3-methyl-phenyl)-pyridin-2-ylamino]-isoxazol-5-yl}-biphenyl-4-yl)-cyclopropanecarboxylic acid], the IC50 on human LPA1 receptor is less than 300 nM; at human LPA2 receptor, less than 300 nM; at human LPA3 receptor, less than 300 nM; in test [1], less than 500 nM.
Take `Cc1ccc(-c2cccc(Nc3c(C)noc3-c3ccc(-c4ccc(C5(C(=O)O)CC5)cc4)cc3)n2)cc1` [Compound 3, 1-(4′-{3-Methyl-4-[6-(4-methyl-phenyl)-pyridin-2-ylamino]-isoxazol-5-yl}-biphenyl-4-yl)-cyclopropanecarboxylic acid]: the IC50 at human LPA1 receptor was less than 300 nM; at human LPA2 receptor, less than 300 nM; on human LPA3 receptor, less than 300 nM; in test [1], less than 500 nM.
For `Cc1ccccc1-c1cncc(Nc2c(C)noc2-c2ccc(-c3ccc(C4(C(=O)O)CC4)cc3)cc2)c1` [Compound 4, 1-(4′-{3-Methyl-4-[5-(2-methyl-phenyl)-pyridin-3-ylamino]-isoxazol-5-yl}-biphenyl-4-yl)-cyclopropanecarboxylic acid], the half-maximal inhibitory concentration (IC50) at human LPA1 receptor was less than 300 nM; at human LPA2 receptor, less than 300 nM; at human LPA3 receptor, less than 300 nM; in test [1], less than 500 nM.
With `Cc1cccc(-c2cncc(Nc3c(C)noc3-c3ccc(-c4ccc(C5(C(=O)O)CC5)cc4)cc3)c2)c1` [Compound 5, 1-(4′-{3-Methyl-4-[5-(3-methyl-phenyl)-pyridin-3-ylamino]-isoxazol-5-yl}-biphenyl-4-yl)-cyclopropanecarboxylic acid], the half-inhibitory concentration (IC50) on human LPA1 receptor is less than 300 nM; at human LPA2 receptor, less than 300 nM; on human LPA3 receptor, less than 300 nM; in test [1] it was less than 500 nM.
As to `Cc1ccc(-c2cncc(Nc3c(C)noc3-c3ccc(-c4ccc(C5(C(=O)O)CC5)cc4)cc3)c2)cc1` [Compound 6, 1-(4′-{3-Methyl-4-[5-(4-methyl-phenyl)-pyridin-3-ylamino]-isoxazol-5-yl}-biphenyl-4-yl)-cyclopropanecarboxylic acid], the IC50 on human LPA1 receptor is less than 300 nM; on human LPA2 receptor, less than 300 nM; on human LPA3 receptor, less than 300 nM; in test [1], less than 500 nM.
`Cc1cccc(-c2cccc(Nc3c(C)noc3-c3ccc(-c4ccc(C5(C(=O)NS(C)(=O)=O)CC5)cc4)cc3)n2)c1` [Compound 8, N-(1-{4′-[3-Methyl-4-(6-(3-methyl-phenyl)-pyridin-2-ylamino)-isoxazol-5-yl]-biphenyl-4-yl}-cyclopropanecarbonyl)-methanesulfonamide]: the concentration for half-maximal inhibition (IC50) on human LPA1 receptor, at human LPA2 receptor and on human LPA3 receptor was less than 300 nM throughout.
Take `Cc1cccc(-c2cncc(Nc3c(C)noc3-c3ccc(-c4ccc(C5(C(=O)NS(C)(=O)=O)CC5)cc4)cc3)c2)c1` [Compound 11, N-(1-{4′-[3-Methyl-4-(5-(3-methyl-phenyl)-pyridin-3-ylamino)-isoxazol-5-yl]-biphenyl-4-yl}-cyclopropanecarbonyl)-methanesulfonamide]: the half-maximal inhibitory concentration (IC50) at human LPA1 receptor, on human LPA2 receptor and at human LPA3 receptor was less than 300 nM throughout.
